Reference: publication PMC6917776, “Discovery of a chemical probe for PRDM9” (Nature Communications, 2019)
Like-named read-outs stand apart in the source and are kept apart here.

How the values were obtained:
Format in all cases: biochemical
DNMT1 = molecular target: T1, DNMT1 (Homo sapiens, UniProt P26358); assay: Methyltransferase selectivity assay (SPA)
T1 construct: purchased Structural Genomics Consortium (SGC Toronto) in-house methyltransferase panel
Protocol: (§1) Selectivity against methyltransferases were determined as described previously. Details of the assays are described in the supplementary methods.
(§2) Methyltransferase selectivity assay1
The effect of chemical probes and negative controls on the methyltransferase activities of protein, DNA and RNA methyltransferases was tested by radiometric assays using 3H-SAM. For proteins such as MLL1 trimeric, MLL3 pentameric, EZH1 (PRC2) pentameric, and EZH2 (PRC2) trimeric complexes, as well as G9a, GLP, SUV39H1, SUV39H2, SUV420H1, SUV420H2, SETD2, SETD8, SETDB1, SETD7, PRMT1, PRMT3, PRMT4, PRMT5/ MEP50 complex, PRMT6, PRMT7, PRMT8, PRMT9, PRDM9, SMYD2, SMYD3, DNMT1, and BCDIN3D the incorporation of a tritium-labeled methyl group into biotinylated substrate was monitored using scintillation proximity assay (SPA). Briefly, a 10 µL reaction containing 3H-SAM and substrate at concentrations close to the apparent Km values for each enzyme (balanced conditions) was prepared. The reactions were quenched with 10 µL of 7.5 M guanidine hydrochloride; 180 µL of 20 mM Tris buffer (pH 8.0) were added, and the mixture was transferred to a 96-well FlashPlate and incubated for 1 h. The counts per minute (CPM) was measured on a TopCount plate reader. The CPM in the absence of compound or enzyme was defined as 100% activity and background (0%), respectively, for each dataset. For DNMT1, the double-stranded DNA substrate was prepared by annealing two complementary strands (biotinylated forward strand: B-[…] and reverse strand: […]

DOT1L = molecular target: T2, DOT1L (Homo sapiens, UniProt Q8TEK3); assay: Methyltransferase selectivity assay (filter-based, nucleosome substrate)
T2 construct: purchased Structural Genomics Consortium (SGC Toronto) in-house methyltransferase panel
Protocol: as §1, §2
(§3) The effect of chemical probes and negative controls on the methyltransferase activities of protein, DNA and RNA methyltransferases was tested by radiometric assays using 3H-SAM. […]
(§4) The CPM in the absence of compound or enzyme was defined as 100% activity and background (0%), respectively, for each dataset. […]
(§5) For proteins which were tested with nucleosome as substrate such as DOT1L, NSD1, NSD2, NSD3, and ASH1L, or unbiotinylated Poly(2′-deoxyinosinic-2′-deoxycytidylic acid) (Cat# 81349-500UG, Sigma Aldrich) such as DNMT3A/3L, and DNMT3B/3L, a filter-based assay was used. In this assay, a trichloroacetic acid (TCA) protein precipitation protocol was employed. A 10 µL reaction mixture was incubated at 23°C for 1 h, followed by addition of 50 µL of 10% TCA. The mixture was transferred to filter plates (Millipore, Billerica, MA, USA) that were centrifuged at 2000 rpm (Allegra X-15R; Beckman Coulter, Brea, CA, USA) for 2 min. Samples were washed twice with 10% TCA and once with ethanol (180 µL), and centrifuged. After drying, 100 µL MicroScint-O (Perkin Elmer) was added to each well and the plates were centrifuged to remove the liquid. A 70 µL volume of MicroScint-O was added and the CPM was measured with a TopCount plate reader.

NSD1 = molecular target: T3, NSD1 (Homo sapiens, UniProt Q96L73); assay: as above
T3 construct: purchased Structural Genomics Consortium (SGC Toronto) in-house methyltransferase panel
T3 sequence (Q96L73 whole entry): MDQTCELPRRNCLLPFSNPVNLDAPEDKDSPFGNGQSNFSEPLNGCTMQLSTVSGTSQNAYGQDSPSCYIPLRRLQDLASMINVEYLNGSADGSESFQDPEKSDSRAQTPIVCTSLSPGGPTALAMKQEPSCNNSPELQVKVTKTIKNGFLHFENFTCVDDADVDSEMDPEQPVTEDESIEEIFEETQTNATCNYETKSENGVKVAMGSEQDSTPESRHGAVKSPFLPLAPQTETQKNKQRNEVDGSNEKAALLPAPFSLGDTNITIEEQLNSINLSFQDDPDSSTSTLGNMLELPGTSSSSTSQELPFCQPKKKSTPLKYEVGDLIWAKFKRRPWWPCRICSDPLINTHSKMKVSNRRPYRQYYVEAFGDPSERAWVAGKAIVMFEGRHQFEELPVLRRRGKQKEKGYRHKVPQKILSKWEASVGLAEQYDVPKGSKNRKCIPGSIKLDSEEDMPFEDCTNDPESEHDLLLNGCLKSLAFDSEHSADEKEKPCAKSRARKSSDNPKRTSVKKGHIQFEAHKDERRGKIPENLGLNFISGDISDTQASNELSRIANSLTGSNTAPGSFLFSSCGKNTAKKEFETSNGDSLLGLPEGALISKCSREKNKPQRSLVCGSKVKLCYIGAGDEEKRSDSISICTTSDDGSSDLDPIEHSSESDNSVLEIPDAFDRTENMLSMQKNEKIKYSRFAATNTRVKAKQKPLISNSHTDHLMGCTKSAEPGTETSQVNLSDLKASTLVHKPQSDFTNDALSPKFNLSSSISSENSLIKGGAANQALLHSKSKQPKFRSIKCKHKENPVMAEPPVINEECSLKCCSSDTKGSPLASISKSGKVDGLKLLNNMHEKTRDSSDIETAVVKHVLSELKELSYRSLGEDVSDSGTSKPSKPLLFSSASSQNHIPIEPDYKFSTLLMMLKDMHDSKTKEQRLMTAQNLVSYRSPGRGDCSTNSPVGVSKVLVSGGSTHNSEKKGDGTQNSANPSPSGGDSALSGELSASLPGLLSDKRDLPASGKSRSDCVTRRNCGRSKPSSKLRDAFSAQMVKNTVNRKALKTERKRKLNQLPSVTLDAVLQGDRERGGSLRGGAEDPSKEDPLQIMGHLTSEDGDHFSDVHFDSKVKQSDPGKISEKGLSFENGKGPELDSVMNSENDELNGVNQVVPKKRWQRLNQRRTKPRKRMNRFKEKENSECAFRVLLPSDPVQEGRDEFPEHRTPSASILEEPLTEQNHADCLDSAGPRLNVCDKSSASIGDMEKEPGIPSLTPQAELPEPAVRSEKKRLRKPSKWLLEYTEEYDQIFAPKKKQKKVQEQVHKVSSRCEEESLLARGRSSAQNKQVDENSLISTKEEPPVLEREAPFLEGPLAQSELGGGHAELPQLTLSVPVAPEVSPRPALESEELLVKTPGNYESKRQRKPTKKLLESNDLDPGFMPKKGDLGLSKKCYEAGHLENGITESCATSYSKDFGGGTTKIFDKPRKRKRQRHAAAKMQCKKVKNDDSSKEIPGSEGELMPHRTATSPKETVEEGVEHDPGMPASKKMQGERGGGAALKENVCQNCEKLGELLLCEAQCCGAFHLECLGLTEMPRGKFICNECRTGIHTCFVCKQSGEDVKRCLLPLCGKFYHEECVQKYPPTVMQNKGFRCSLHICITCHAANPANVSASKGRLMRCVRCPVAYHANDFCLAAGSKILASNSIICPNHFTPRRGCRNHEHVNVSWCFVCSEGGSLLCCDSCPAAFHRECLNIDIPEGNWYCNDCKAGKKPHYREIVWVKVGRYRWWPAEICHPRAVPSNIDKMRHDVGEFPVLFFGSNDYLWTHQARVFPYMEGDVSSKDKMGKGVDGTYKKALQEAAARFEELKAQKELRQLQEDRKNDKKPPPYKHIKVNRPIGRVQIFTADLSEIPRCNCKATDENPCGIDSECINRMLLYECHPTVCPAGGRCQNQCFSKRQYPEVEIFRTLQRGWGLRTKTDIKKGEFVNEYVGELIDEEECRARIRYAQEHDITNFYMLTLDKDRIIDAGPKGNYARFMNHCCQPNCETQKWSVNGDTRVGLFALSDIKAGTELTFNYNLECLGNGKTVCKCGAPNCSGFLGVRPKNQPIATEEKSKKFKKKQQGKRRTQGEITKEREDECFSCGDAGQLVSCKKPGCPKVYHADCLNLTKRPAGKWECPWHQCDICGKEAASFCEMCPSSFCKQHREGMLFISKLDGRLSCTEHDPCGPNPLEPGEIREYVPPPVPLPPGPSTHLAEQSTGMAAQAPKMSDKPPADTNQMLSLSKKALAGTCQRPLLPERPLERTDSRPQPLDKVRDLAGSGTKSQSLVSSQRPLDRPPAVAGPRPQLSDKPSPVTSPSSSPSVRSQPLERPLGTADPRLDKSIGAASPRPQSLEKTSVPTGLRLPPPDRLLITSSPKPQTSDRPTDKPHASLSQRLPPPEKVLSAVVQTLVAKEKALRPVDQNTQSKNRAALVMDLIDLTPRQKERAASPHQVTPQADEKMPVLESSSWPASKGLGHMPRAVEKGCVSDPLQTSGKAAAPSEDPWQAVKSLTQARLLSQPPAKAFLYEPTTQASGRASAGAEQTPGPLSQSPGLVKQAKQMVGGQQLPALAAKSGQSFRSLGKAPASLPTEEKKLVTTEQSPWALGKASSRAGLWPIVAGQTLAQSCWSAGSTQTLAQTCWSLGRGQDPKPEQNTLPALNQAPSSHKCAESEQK
Protocol: as §1, §2, §3, §4, §5

DNMT3B/3L = molecular target: T4, DNMT3B/3L (Homo sapiens, UniProt Q9UBC3); assay: Methyltransferase selectivity assay (filter-based); conditions: for activity at 1 µM: 1µM compound; for activity at 10 µM / Activity %: 10µM compound; for Activity %: Exp1, Exp2, 10 µM
T4 construct: purchased Structural Genomics Consortium (SGC Toronto) in-house methyltransferase panel
Protocol: as §1, §2, §3
The counts per minute (CPM) was measured on a TopCount plate reader. The CPM in the absence of compound or enzyme was defined as 100% activity and background (0%), respectively, for each dataset. […]
as §5

[1] = test system: 32 protein, DNA and RNA methyltransferases; assay: Methyltransferase selectivity assay (whole panel); conditions: tested at 1 µM and 10 µM of compounds
Protocol: Selectivity against methyltransferases were determined as described previously. Details of the assays are described in the supplementary methods. […]
were tested at (circle) 1 µM and (triangle) 10 µM of compounds. PRDM9 was the only methyltransferase in this panel of MTs that was inhibited by MRK -740.
Effect of both compounds on PRDM7 is presented in figure 1D in the main text. Each experiment was performed at two concentrations (1 and 10 µM) of compounds and in duplicate (n=2). Source data are provided as a Source Data file .
(1 picture or pasted object on this page, not shown here)
as §2
The effect of chemical probes and negative controls on the methyltransferase activities of protein, DNA and RNA methyltransferases was tested by radiometric assays using 3H-SAM. For proteins such as MLL1 trimeric, MLL3 pentameric, EZH1 (PRC2) pentameric, and EZH2 (PRC2) trimeric complexes, as well as G9a, GLP, SUV39H1, SUV39H2, SUV420H1, SUV420H2, SETD2, SETD8, SETDB1, SETD7, PRMT1, PRMT3, PRMT4, PRMT5/ MEP50 complex, PRMT6, PRMT7, PRMT8, PRMT9, PRDM9, SMYD2, SMYD3, DNMT1, and BCDIN3D the incorporation of a tritium-labeled methyl group into biotinylated substrate was monitored using scintillation proximity assay (SPA). […] The counts per minute (CPM) was measured on a TopCount plate reader. […]

[2] = 10µM compound, Exp1, Exp2, 10 µM
[3] = 1µM compound, Exp1, Exp2, read-out: Activity %
[4] = 10µM compound, Exp1, Exp2, read-out: Activity %
[5] = Exp1, Exp2, read-out: Activity %

T1 sequence (P26358 whole entry): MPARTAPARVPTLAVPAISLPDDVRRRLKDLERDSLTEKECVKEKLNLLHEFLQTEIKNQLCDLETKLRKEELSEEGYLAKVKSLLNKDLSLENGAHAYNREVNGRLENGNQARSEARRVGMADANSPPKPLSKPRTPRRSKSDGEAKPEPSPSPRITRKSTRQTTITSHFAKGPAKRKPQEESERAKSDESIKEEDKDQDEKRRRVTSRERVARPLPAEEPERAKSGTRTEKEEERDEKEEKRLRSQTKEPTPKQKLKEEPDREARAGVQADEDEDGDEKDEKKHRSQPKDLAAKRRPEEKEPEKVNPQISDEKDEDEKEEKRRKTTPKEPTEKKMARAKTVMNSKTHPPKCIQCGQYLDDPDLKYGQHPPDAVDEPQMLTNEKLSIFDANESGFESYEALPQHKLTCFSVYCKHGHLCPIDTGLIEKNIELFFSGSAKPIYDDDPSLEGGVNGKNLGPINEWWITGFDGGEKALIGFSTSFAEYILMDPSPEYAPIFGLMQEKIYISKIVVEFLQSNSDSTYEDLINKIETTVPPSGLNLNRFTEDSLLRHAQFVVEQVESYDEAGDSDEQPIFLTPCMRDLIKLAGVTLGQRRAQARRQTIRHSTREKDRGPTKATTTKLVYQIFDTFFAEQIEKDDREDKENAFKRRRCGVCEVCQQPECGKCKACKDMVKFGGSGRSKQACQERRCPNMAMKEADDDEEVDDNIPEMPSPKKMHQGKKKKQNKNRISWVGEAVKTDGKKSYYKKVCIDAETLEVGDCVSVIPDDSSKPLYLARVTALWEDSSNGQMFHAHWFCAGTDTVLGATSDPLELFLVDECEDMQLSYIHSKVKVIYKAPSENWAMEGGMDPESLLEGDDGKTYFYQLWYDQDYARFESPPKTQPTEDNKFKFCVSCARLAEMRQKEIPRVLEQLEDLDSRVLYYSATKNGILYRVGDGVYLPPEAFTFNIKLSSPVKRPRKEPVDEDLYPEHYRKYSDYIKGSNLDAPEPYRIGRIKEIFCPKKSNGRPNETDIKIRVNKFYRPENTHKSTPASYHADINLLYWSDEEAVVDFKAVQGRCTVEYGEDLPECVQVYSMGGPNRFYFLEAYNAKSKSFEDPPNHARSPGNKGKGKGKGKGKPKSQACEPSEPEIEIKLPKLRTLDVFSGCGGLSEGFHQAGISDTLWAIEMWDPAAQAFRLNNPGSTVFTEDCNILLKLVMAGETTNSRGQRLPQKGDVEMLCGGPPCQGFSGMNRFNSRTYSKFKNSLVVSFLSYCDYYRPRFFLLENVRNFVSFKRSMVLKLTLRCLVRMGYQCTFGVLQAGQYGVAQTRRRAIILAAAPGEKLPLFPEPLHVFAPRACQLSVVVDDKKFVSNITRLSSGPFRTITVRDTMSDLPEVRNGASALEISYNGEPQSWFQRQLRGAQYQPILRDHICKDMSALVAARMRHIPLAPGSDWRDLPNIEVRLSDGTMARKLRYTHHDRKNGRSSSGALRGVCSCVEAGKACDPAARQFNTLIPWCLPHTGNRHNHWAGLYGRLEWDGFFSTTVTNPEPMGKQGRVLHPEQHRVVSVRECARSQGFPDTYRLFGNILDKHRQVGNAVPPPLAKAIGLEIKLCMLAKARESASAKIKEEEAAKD

Molecule COc1cc(OC)cc(-c2noc(N3CCN(C)C4(CCN(c5ccccc5)CC4)C3)n2)c1 [MRK-740 -NC] has an activity at 1 µM (DNMT1; 1µM compound, Exp1, Exp2) of 105%, an activity at 10 µM (DNMT1; 10µM compound, Exp1, Exp2) of 102% and an Activity % (DNMT1; [2]) of 98%. It also gave an activity at 1 µM (DOT1L; 1µM compound, Exp1, Exp2) of 104%, an Activity % (DOT1L; 1µM compound, Exp1, Exp2, 1 µM) of 102% and an activity at 10 µM (DOT1L; 10µM compound, Exp1, Exp2) of 100%. For the same molecule, the Activity % (DOT1L; [2]) was 99%, the activity at 1 µM (NSD1; 1µM compound, Exp1, Exp2) was 103% and the activity at 10 µM (NSD1; 10µM compound, Exp1, Exp2) was 100%. The Activity % (NSD1; [2]) was 99%, the activity at 1 µM (DNMT3B/3L; Exp1, Exp2) was 101% and the activity at 10 µM (DNMT3B/3L; Exp1, Exp2) was 99%. For the same molecule, the Activity % (DNMT3B/3L) was 97%.

In the case of COc1cc(OC)cc(-c2noc(N3CCN(C)C4(CCN(c5ccccc5)CC4)C3)n2)c1 [MRK-740-NC], the “Methyltransferase selectivity (in words)” value [1] is reported as “no effect on activity of any of 33 MTs”.

With COc1cc(OC)cc(-c2noc(N3CCN(C)C4(CCN(c5ccnc(C)c5)CC4)C3)n2)c1 [MRK-740] the “Methyltransferase selectivity (in words)” value [1] was “selective”, the Activity % (DNMT1; 1µM compound, Exp1, Exp2, 1 µM) was 95% and the activity at 1 µM (DNMT1; [3]) was 98%. The Activity % (DNMT1; [2]) was 101%, the activity at 10 µM (DNMT1; [4]) was 99% and the Activity % (DOT1L; 1µM compound, Exp1, Exp2, 1 µM) was 100%. For the same molecule, the activity at 1 µM (DOT1L; [3]) was 98%, the activity at 10 µM (DOT1L; [4]) was 97% and the Activity % (NSD1; 1µM compound, Exp1, Exp2, 1 µM) was 97%. The activity at 1 µM (NSD1; [3]) was 96%, the Activity % (NSD1; [2]) was 98% and the activity at 10 µM (NSD1; [4]) was 106%. It also gave an activity at 1 µM (DNMT3B/3L; [5]) of 100%, an Activity % (DNMT3B/3L) of 90% and an activity at 10 µM (DNMT3B/3L; [5]) of 82%.
